Reference: PubChem BioAssay (NCI)
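Values below derive from 48-hour exposures of cells grown in 96-well plates, with endpoints linearly interpolated between the two concentrations bracketing the appropriate inhibition level. GI50 = concentration required for 50% inhibition of growth. TGI: concentration producing complete growth inhibition.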

How the values were obtained:
Assay in all cases: DTP human tumour cell line panel, 48 h
HS 578T breast = test system: HS 578T breast
KM12 colon = test system: KM12 colon
M14 melanoma = test system: M14 melanoma
NCI-H23 lung = test system: NCI-H23 lung
OVCAR-8 ovarian = test system: OVCAR-8 ovarian
PC-3 prostate = test system: PC-3 prostate
SK-MEL-5 melanoma = test system: SK-MEL-5 melanoma
SK-OV-3 ovarian = test system: SK-OV-3 ovarian
SN12C renal = test system: SN12C renal
NCI-H522 lung = test system: NCI-H522 lung

| Structure (SMILES) | GI50 (HS 578T breast) [µM] | TGI (HS 578T breast) [µM] | GI50 (KM12 colon) [µM] | TGI (KM12 colon) [µM] | GI50 (M14 melanoma) [µM] | TGI (M14 melanoma) [µM] | GI50 (NCI-H23 lung) [µM] | TGI (NCI-H23 lung) [µM] | GI50 (OVCAR-8 ovarian) [µM] | TGI (OVCAR-8 ovarian) [µM] | GI50 (PC-3 prostate) [µM] | TGI (PC-3 prostate) [µM] | GI50 (SK-MEL-5 melanoma) [µM] | TGI (SK-MEL-5 melanoma) [µM] | GI50 (SK-OV-3 ovarian) [µM] | TGI (SK-OV-3 ovarian) [µM] | GI50 (SN12C renal) [µM] | TGI (SN12C renal) [µM] | TGI (NCI-H522 lung) [µM] | GI50 (NCI-H522 lung) [µM] |
| --- | --- | --- | --- | --- | --- | --- | --- | --- | --- | --- | --- | --- | --- | --- | --- | --- | --- | --- | --- | --- |
| Cc1cc(N2CCSCC2)nc(NC2CCCC(Nc3ccnc4cc(Cl)ccc34)C2)n1 (stereo not drawn) | 1.87 | 4.64 | 1.94 | 4.25 | 1.85 | 3.72 | 2.55 | 7.99 | 2.5 | 5.51 | 2.1 | 4.52 | 1.72 | 3.11 | 1.98 | 4.22 | 1.9 | 4.37 |  |  |
| O=c1[nH]c2cc(Cl)ccc2nc1/C(=N\O)C(O)c1ccc([N+](=O)[O-])cc1 (stereo not drawn) |  |  |  | > 100 |  | > 100 |  |  |  | > 100 |  |  |  | > 100 |  | > 100 |  | > 100 |  |  |
| COc1cc(CNC2c3cc4c(cc3C(c3cc(OC)c(OC)c(OC)c3)[C@H]3C(=O)OCC23)OCO4)cc(OC)c1OC (stereo partly drawn) |  |  |  | 0.692 |  | > 100 |  | 0.77 |  |  |  |  |  | 0.538 |  | > 100 |  | > 100 | 0.262 |  |
| C[N+](C)(C)CC(=O)N/N=C(\C(=O)NC1=C(Cl)C(=O)c2ccccc2C1=O)C(C#N)c1csc(-c2ccc([N+](=O)[O-])cc2)n1 (stereo not drawn) |  |  |  | > 100 |  | > 100 |  | > 100 |  | > 100 |  |  |  | > 100 |  | > 100 |  | > 100 | > 100 |  |
| CN(C)c1nc(=Nc2cccc(Cl)c2)ss1 |  |  |  | 43.7 |  | 28.4 |  | > 100 |  | 25.6 |  |  |  | > 100 |  | > 100 |  | 25.4 | 15 |  |
| CCN(CC)CCCNC(=O)c1c2c(n3ccccc13)C(=O)c1ncccc1C2=O | 2.46 | 7.3 | 0.44 | 6.33 | 0.764 | 2.25 | 0.252 | 1.99 | 0.486 | 2.07 | 0.616 | 6.65 | 0.275 | 1.24 | 1.59 | 5.65 |  |  | 2.32 | 0.515 |
| CCOC(=N)/C(=C1\OC(N)=C(c2ccc(Cl)cc2)C1=O)c1ccc(Cl)cc1 |  |  |  | 34.4 |  | 31.6 |  | 28.6 |  | 28.7 |  |  |  |  |  | > 100 |  | 28.6 | 29.4 |  |
| O=c1c(Cl)c(Cl)c(=O)c2sc3cc(Cl)ccc3[nH]c1=2 |  | > 100 |  | > 100 |  | > 100 |  | > 100 |  | 35 |  | > 100 |  | > 100 |  | > 100 |  |  | 35.2 |  |
| O=Cc1ccc(-c2ccc(-c3nc4ccccc4o3)cc2)o1 |  |  | 21 | 53.4 | 44.1 | > 100 | 31.8 | > 100 | 33.3 | > 100 | 30.3 | > 100 | 22 | 62 | 41.9 | > 100 |  |  | 59.3 | 24.4 |
| O=S1Nc2c(Cl)cc(Cl)c3c(Cl)cc(Cl)c(c23)N1 |  |  |  | > 100 |  | > 100 |  | > 100 |  | > 100 |  |  |  | > 100 |  | > 100 |  | > 100 | 89.8 |  |
| CC1=NN(C(=O)c2ccc([N+](=O)[O-])cc2)C(=O)C1N=Nc1ccccc1C(=O)O (stereo not drawn) |  |  |  | > 100 |  |  |  | > 100 |  | > 100 |  |  |  | > 100 |  | > 100 |  | > 100 | > 100 |  |
| COc1cccc(/C=C/C(=O)c2ccc(Cl)cc2Cl)c1 | 22.3 | > 50 | 17.2 | > 50 | 10.3 | 22.3 | 9.72 | 28.7 | 9.46 | 22.7 | 8.92 | 20.9 | 9.38 | 17.6 |  |  | 8.72 | 16.5 | > 50 | 18 |
| COC1=CC(=O)C2C(C1=O)C(c1ccccc1)[C@H]2C (stereo partly drawn) |  |  |  | > 100 |  | > 100 |  | > 100 |  | > 100 |  |  |  | > 100 |  | > 100 |  |  |  |  |
| C/C=C/CC(C)[C@@H](O)[C@H](NC)C(=O)O (stereo partly drawn) |  |  |  | > 100 |  | > 100 |  | > 100 |  | > 100 |  |  |  | > 100 |  | > 100 |  | > 100 | > 100 |  |
| COC(=O)C1[C@H](c2cc(OC)c(OC)c(OC)c2)OC(=O)C1(C(=O)OC)C(=O)c1ccc2c(c1)OCO2 (stereo partly drawn) |  |  |  | > 100 |  | > 100 |  | > 100 |  | > 100 |  |  |  | > 100 |  | > 100 |  | > 100 | > 100 |  |
| CCCN(CCCC(NC(C)=O)C(=O)NCc1ccccc1)C(=O)NCCCl (stereo not drawn) |  |  |  | > 100 |  | > 100 |  | > 100 |  | > 100 |  |  |  |  |  |  |  | > 100 | > 100 |  |
| CC(=O)OC1CC2C(C)(C)C(=O)C=C[C@]2(C)C2CCC3(C)C(=CC(=O)C3c3ccoc3)[C@]12C (stereo partly drawn) |  |  |  | 35.5 |  | 61.7 |  | 29.5 |  | 41 |  |  |  | 26.4 |  | 35.6 |  | 32.5 |  |  |
| COC(=O)Cc1ccc(Oc2cnc3cc(F)c(F)cc3n2)cc1 | > 100 | > 100 | > 100 | > 100 |  |  | 68.4 | > 100 | > 100 | > 100 | 63.7 | > 100 | 32 | > 100 | > 100 | > 100 | > 100 | > 100 | > 100 | > 100 |
| Cc1cc(N(CCC#N)S(C)(=O)=O)ccc1C=Nc1ccc(C(=O)NN2C(=O)/C(=C/c3ccc(N(CCC#N)CCC#N)cc3C)N=C2c2cc([N+](=O)[O-])ccc2Cl)cc1 |  |  |  | > 100 |  | > 100 |  | > 100 |  | > 100 |  |  |  | > 100 |  | > 100 |  | > 100 | > 100 |  |
| O=[N+]([O-])CCc1cccc([N+](=O)[O-])c1 |  |  |  | > 100 |  | > 100 |  | > 100 |  | > 100 |  |  |  | > 100 |  |  |  | > 100 | > 100 |  |
